Source: patent US20250230193A1, “CYCLIC COMPOUND HAVING SELECTIVE KRAS INHIBITORY EFFECT ON HRAS AND NRAS” (CHUGAI SEIYAKU KABUSHIKI KAISHA, priority 2022, published 2025)

Experiments:
[1] = target: GDP-bound NRAS wild-type protein (Homo sapiens, UniProt P01111); assay: Binding to NRAS by surface plasmon resonance (SPR), Single Cycle Kinetics; conditions: KD ratio, GDP-bound NRAS wild-type vs GDP-bound KRAS wild-type, SPR
[2] = target: GDP-bound HRAS wild-type protein (Homo sapiens, UniProt P01112); assay: Binding to HRAS by surface plasmon resonance (SPR), Single Cycle Kinetics; conditions: KD ratio, GDP-bound HRAS wild-type vs GDP-bound KRAS wild-type, SPR
Sequence of GDP-bound HRAS wild-type protein (P01112 whole entry): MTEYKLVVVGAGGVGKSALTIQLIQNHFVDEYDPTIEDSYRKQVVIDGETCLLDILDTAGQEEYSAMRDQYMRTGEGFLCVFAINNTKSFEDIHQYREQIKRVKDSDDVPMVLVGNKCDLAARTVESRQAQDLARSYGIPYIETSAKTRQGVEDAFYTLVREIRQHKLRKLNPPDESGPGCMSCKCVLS

Sequence of GDP-bound NRAS wild-type protein (P01111 whole entry): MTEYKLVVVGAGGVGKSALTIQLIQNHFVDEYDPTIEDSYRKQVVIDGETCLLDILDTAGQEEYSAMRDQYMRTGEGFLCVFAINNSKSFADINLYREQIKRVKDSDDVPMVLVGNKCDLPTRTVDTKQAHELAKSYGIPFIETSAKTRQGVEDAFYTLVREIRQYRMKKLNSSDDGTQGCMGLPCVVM

SMILES | NRAS/KRAS (ratio of KD value with respect to NRAS to KD value with respect to KRAS) [1] | HRAS/KRAS (ratio of KD value with respect to HRAS to KD value with respect to KRAS) [2]
CCO[C@H]1CCN2C(=O)[C@H](CCc3cc(F)c(C(F)(F)F)c(F)c3)NC(=O)CN(C)C(=O)[C@H](Cc3ccc(C(F)(F)F)cc3)N3CCCC[C@@H](C3=O)N(C)C(=O)CN(C)C(=O)[C@H]([C@@H](C)CC)NC(=O)[C@H](CC(C)C)N(C)C(=O)C[C@@H](C(=O)N3CCOCC3)N(C)C(=O)[C@H](C3CCCC3)N(C)C(=O)C3(CCC3)NC(=O)[C@H]12 [PP1076] | B (a compound having 3 or more and less than 10 is denoted as B) | B (a compound having 3 or more and less than 10 is denoted as B)
CCCO[C@H]1CCN2C(=O)[C@H](CCc3cc(F)c(C(F)(F)F)c(F)c3)NC(=O)CN(C)C(=O)[C@H](Cc3ccc(C(F)(F)F)cc3)N3CCCC[C@@H](C3=O)N(C)C(=O)CN(C)C(=O)[C@H]([C@@H](C)CC)NC(=O)[C@H](CC(C)C)N(C)C(=O)C[C@@H](C(=O)N3CCOCC3)N(C)C(=O)[C@H](C3CCCC3)N(C)C(=O)C3(CCC3)NC(=O)[C@H]12 [PP1077] | B (a compound having 3 or more and less than 10 is denoted as B) | B (a compound having 3 or more and less than 10 is denoted as B)
CCO[C@@H]1CCN2C(=O)[C@H](CCc3cc(F)c(C(F)(F)F)c(F)c3)NC(=O)CN(C)C(=O)[C@H](Cc3ccc(C(F)(F)F)cc3)N3CCCC[C@@H](C3=O)N(C)C(=O)CN(C)C(=O)[C@H]([C@@H](C)CC)NC(=O)[C@H](CC(C)C)N(C)C(=O)C[C@@H](C(=O)N3CCOCC3)N(C)C(=O)[C@H](C3CCCC3)N(C)C(=O)C3(CCC3)NC(=O)[C@H]12 [PP1079] | B (a compound having 3 or more and less than 10 is denoted as B) | B (a compound having 3 or more and less than 10 is denoted as B)
CCCO[C@@H]1CCN2C(=O)[C@H](CCc3cc(F)c(C(F)(F)F)c(F)c3)NC(=O)CN(C)C(=O)[C@H](Cc3ccc(C(F)(F)F)cc3)N3CCCC[C@@H](C3=O)N(C)C(=O)CN(C)C(=O)[C@H]([C@@H](C)CC)NC(=O)[C@H](CC(C)C)N(C)C(=O)C[C@@H](C(=O)N3CCOCC3)N(C)C(=O)[C@H](C3CCCC3)N(C)C(=O)C3(CCC3)NC(=O)[C@H]12 [PP1080] | B (a compound having 3 or more and less than 10 is denoted as B) | B (a compound having 3 or more and less than 10 is denoted as B)
CCO[C@@H]1CCN2C(=O)[C@H](CCc3cc(F)c(C(F)(F)F)c(F)c3)NC(=O)CN(C)C(=O)[C@H](Cc3ccc(C(F)(F)F)cc3)N3CCCCC[C@@H](C3=O)N(C)C(=O)CN(C)C(=O)[C@H]([C@@H](C)CC)NC(=O)[C@H](CC(C)C)N(C)C(=O)C[C@@H](C(=O)N3CCOCC3)N(C)C(=O)[C@H](C3CCCC3)N(C)C(=O)C3(CCC3)NC(=O)[C@H]12 [PP1082] | A (a compound having 10 or more and less than 20 is denoted as A) | B (a compound having 3 or more and less than 10 is denoted as B)
CCCO[C@@H]1CCN2C(=O)[C@H](CCc3cc(F)c(C(F)(F)F)c(F)c3)NC(=O)CN(C)C(=O)[C@H](Cc3ccc(C(F)(F)F)cc3)N3CCCCC[C@@H](C3=O)N(C)C(=O)CN(C)C(=O)[C@H]([C@@H](C)CC)NC(=O)[C@H](CC(C)C)N(C)C(=O)C[C@@H](C(=O)N3CCOCC3)N(C)C(=O)[C@H](C3CCCC3)N(C)C(=O)C3(CCC3)NC(=O)[C@H]12 [PP1083] | B (a compound having 3 or more and less than 10 is denoted as B) | B (a compound having 3 or more and less than 10 is denoted as B)
CC[C@H](C)[C@@H]1NC(=O)[C@H](CC(C)C)N(C)C(=O)C[C@@H](C(=O)N2CCOCC2)N(C)C(=O)[C@H](C2CCCC2)N(C)C(=O)C2(CCC2)NC(=O)[C@@H]2[C@H](OC)CCN2C(=O)[C@H](CCc2cc(F)c(C(F)(F)F)c(F)c2)NC(=O)CN(C)C(=O)[C@H](Cc2ccc(C(F)(F)F)cc2)N2CCCC[C@@H](C2=O)N(C)C(=O)CN(C)C1=O [PP1084] | C (A compound having a KD ratio of 0.1 or more and less than 3 is denoted as C) | B (a compound having 3 or more and less than 10 is denoted as B)
CCO[C@@H]1C[C@H]2C(=O)NC3(CCC3)C(=O)N(C)[C@@H](C3CCCCC3)C(=O)N(C)[C@H](C(=O)N(C)C)CC(=O)N(C)[C@@H](CC)C(=O)N[C@@H]([C@@H](C)CC)C(=O)N(C)CC(=O)N(C)[C@H]3C/C=C\CCN(C3=O)[C@@H](Cc3ccc(C(F)(F)F)cc3)C(=O)N(C)CC(=O)N[C@@H](CCc3cc(F)c(C(F)(F)F)c(F)c3)C(=O)N2C1 [PP1086] | AA (a compound having 20 or more is denoted as AA) | A (a compound having 10 or more and less than 20 is denoted as A)
CCO[C@@H]1C[C@H]2C(=O)NC3(CCC3)C(=O)N(C)[C@@H]([C@@H](C)CC)C(=O)N(C)[C@H](C(=O)N(C)C)CC(=O)N(C)[C@@H](CC)C(=O)N[C@@H]([C@@H](C)CC)C(=O)N(C)CC(=O)N(C)[C@H]3C/C=C\CCN(C3=O)[C@@H](Cc3ccc(C(F)(F)F)cc3)C(=O)N(C)CC(=O)N[C@@H](CCc3cc(F)c(C(F)(F)F)c(F)c3)C(=O)N2C1 [PP1087] | A (a compound having 10 or more and less than 20 is denoted as A) | A (a compound having 10 or more and less than 20 is denoted as A)
CCO[C@@H]1C[C@H]2C(=O)NC3(CCC3)C(=O)N(C)[C@@H](C(C)C)C(=O)N(C)[C@H](C(=O)N(C)C)CC(=O)N(C)[C@@H](CC)C(=O)N[C@@H]([C@@H](C)CC)C(=O)N(C)CC(=O)N(C)[C@H]3C/C=C\CCN(C3=O)[C@@H](Cc3ccc(C(F)(F)F)cc3)C(=O)N(C)CC(=O)N[C@@H](CCc3cc(F)c(C(F)(F)F)c(F)c3)C(=O)N2C1 [PP1088] | A (a compound having 10 or more and less than 20 is denoted as A) | A (a compound having 10 or more and less than 20 is denoted as A)
CCO[C@@H]1C[C@H]2C(=O)NC3(CCC3)C(=O)N(C)[C@@H](CC(C)C)C(=O)N(C)[C@H](C(=O)N(C)C)CC(=O)N(C)[C@@H](CC)C(=O)N[C@@H]([C@@H](C)CC)C(=O)N(C)CC(=O)N(C)[C@H]3C/C=C\CCN(C3=O)[C@@H](Cc3ccc(C(F)(F)F)cc3)C(=O)N(C)CC(=O)N[C@@H](CCc3cc(F)c(C(F)(F)F)c(F)c3)C(=O)N2C1 [PP1089] | AA (a compound having 20 or more is denoted as AA) | A (a compound having 10 or more and less than 20 is denoted as A)
CCO[C@@H]1C[C@H]2C(=O)NC3(CCC3)C(=O)N(C)[C@@H](C3CCCC3)C(=O)N(C)[C@H](C(=O)N3CCCC3)CC(=O)N(C)[C@@H](CC)C(=O)N[C@@H]([C@@H](C)CC)C(=O)N(C)CC(=O)N(C)[C@H]3C/C=C\CCN(C3=O)[C@@H](Cc3ccc(C(F)(F)F)cc3)C(=O)N(C)CC(=O)N[C@@H](CCc3cc(F)c(C(F)(F)F)c(F)c3)C(=O)N2C1 [PP1090] | AA (a compound having 20 or more is denoted as AA) | A (a compound having 10 or more and less than 20 is denoted as A)
CCO[C@@H]1C[C@H]2C(=O)NC3(CCC3)C(=O)N(C)[C@@H](C3CCCC3)C(=O)N(C)[C@H](C(=O)N3CCC3)CC(=O)N(C)[C@@H](CC)C(=O)N[C@@H]([C@@H](C)CC)C(=O)N(C)CC(=O)N(C)[C@H]3C/C=C\CCN(C3=O)[C@@H](Cc3ccc(C(F)(F)F)cc3)C(=O)N(C)CC(=O)N[C@@H](CCc3cc(F)c(C(F)(F)F)c(F)c3)C(=O)N2C1 [PP1091] | A (a compound having 10 or more and less than 20 is denoted as A) | B (a compound having 3 or more and less than 10 is denoted as B)
CCO[C@@H]1C[C@H]2C(=O)NC3(CCC3)C(=O)N(C)[C@@H](C3CCCC3)C(=O)N(C)[C@H](C(=O)N3CCOCC3)CC(=O)N(C)[C@@H](CC)C(=O)N[C@@H]([C@@H](C)CC)C(=O)N(C)CC(=O)N(C)[C@H]3C/C=C\CCN(C3=O)[C@@H](Cc3ccc(C(F)(F)F)cc3)C(=O)N(C)CC(=O)N[C@@H](CCc3cc(F)c(C(F)(F)F)c(F)c3)C(=O)N2C1 [PP1092] | A (a compound having 10 or more and less than 20 is denoted as A) | A (a compound having 10 or more and less than 20 is denoted as A)
CCO[C@@H]1C[C@H]2C(=O)NC3(CCC3)C(=O)N(C)[C@@H](C3CCCC3)C(=O)N(C)[C@H](C(=O)N3C4CCC3COC4)CC(=O)N(C)[C@@H](CC)C(=O)N[C@@H]([C@@H](C)CC)C(=O)N(C)CC(=O)N(C)[C@H]3C/C=C\CCN(C3=O)[C@@H](Cc3ccc(C(F)(F)F)cc3)C(=O)N(C)CC(=O)N[C@@H](CCc3cc(F)c(C(F)(F)F)c(F)c3)C(=O)N2C1 [PP1093] | AA (a compound having 20 or more is denoted as AA) | A (a compound having 10 or more and less than 20 is denoted as A)
CCO[C@@H]1C[C@H]2C(=O)NC3(CCC3)C(=O)N(C)[C@@H](C3CCCC3)C(=O)N[C@H](C(=O)N(C)C)CC(=O)N(C)[C@@H](CC)C(=O)N[C@@H]([C@@H](C)CC)C(=O)N(C)CC(=O)N(C)[C@H]3C/C=C\CCN(C3=O)[C@@H](Cc3ccc(C(F)(F)F)cc3)C(=O)N(C)CC(=O)N[C@@H](CCc3cc(F)c(C(F)(F)F)c(F)c3)C(=O)N2C1 [PP1094] | A (a compound having 10 or more and less than 20 is denoted as A) | B (a compound having 3 or more and less than 10 is denoted as B)
